Key:
[1] = target: Ankyrin repeat and protein kinase domain-containing protein 1 (Homo sapiens, UniProt Q8NFD2); assay: SgK288(ANK1LGRL) Takeda global kinase panel
[2] = target: Bone morphogenetic protein receptor type-1B (Homo sapiens, UniProt O00238); assay: BMPR1B(BM1BLGF1) Takeda global kinase panel
[3] = target: Cytoplasmic tyrosine-protein kinase BMX (Homo sapiens, UniProt P51813); assay: Etk [BMX(BMX1CGF1)] Takeda global kinase panel
[4] = target: Peripheral plasma membrane protein CASK (Homo sapiens, UniProt O14936); assay: CASK(CASKLGY1) Takeda global kinase panel
[5] = target: Cell division cycle 7-related protein kinase (Homo sapiens, UniProt O00311); assay: CDC7(CDC7CGP1) Takeda global kinase panel
Sequence of Cell division cycle 7-related protein kinase (O00311 whole entry): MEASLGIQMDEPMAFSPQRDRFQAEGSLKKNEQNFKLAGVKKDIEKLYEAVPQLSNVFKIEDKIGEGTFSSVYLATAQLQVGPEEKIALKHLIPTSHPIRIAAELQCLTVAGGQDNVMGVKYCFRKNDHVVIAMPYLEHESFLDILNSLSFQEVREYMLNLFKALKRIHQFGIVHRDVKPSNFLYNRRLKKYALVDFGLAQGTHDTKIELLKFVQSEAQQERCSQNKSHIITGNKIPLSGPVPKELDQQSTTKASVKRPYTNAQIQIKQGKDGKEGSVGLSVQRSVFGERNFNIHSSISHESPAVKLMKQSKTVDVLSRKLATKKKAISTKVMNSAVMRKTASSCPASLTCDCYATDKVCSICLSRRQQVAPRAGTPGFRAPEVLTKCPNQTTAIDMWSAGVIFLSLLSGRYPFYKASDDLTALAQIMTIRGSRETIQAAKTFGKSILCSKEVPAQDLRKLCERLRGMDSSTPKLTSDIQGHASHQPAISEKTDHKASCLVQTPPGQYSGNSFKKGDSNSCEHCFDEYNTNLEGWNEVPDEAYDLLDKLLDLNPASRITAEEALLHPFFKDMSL

[6] = target: Cyclin-dependent kinase 16 (Homo sapiens, UniProt Q00536); assay: PCTAIRE1(CD16SGS1) Takeda global kinase panel
[7] = target: Cyclin-dependent kinase 18 (Homo sapiens, UniProt Q07002); assay: PCTAIRE3(CD18SGS1) Takeda global kinase panel
Sequence of Cyclin-dependent kinase 18 (Q07002 whole entry): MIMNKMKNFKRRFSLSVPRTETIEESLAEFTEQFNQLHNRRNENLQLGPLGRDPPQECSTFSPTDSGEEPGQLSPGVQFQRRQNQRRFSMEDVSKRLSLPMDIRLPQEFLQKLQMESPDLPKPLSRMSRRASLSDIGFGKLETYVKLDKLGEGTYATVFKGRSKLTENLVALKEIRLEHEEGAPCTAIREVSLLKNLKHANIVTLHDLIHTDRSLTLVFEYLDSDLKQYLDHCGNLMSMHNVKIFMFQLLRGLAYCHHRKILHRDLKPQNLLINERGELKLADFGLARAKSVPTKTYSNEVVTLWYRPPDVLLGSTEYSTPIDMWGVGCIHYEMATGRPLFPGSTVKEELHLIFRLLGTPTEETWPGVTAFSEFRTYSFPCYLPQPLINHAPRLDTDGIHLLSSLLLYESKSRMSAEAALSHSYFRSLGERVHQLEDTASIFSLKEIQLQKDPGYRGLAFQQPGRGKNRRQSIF

[8] = target: Cyclin-dependent kinase 3 (Homo sapiens, UniProt Q00526); assay: CDK3(CDK3CGS1) Takeda global kinase panel
[9] = target: Cyclin-dependent kinase 7 (Homo sapiens, UniProt P50613); assay: CDK7(CDK7CGS1) Takeda global kinase panel
[10] = target: Cyclin-dependent kinase 8 (Homo sapiens, UniProt P49336); assay: CDK8(CDK8CGS1) Takeda global kinase panel
Sequence of Cyclin-dependent kinase 8 (P49336 whole entry): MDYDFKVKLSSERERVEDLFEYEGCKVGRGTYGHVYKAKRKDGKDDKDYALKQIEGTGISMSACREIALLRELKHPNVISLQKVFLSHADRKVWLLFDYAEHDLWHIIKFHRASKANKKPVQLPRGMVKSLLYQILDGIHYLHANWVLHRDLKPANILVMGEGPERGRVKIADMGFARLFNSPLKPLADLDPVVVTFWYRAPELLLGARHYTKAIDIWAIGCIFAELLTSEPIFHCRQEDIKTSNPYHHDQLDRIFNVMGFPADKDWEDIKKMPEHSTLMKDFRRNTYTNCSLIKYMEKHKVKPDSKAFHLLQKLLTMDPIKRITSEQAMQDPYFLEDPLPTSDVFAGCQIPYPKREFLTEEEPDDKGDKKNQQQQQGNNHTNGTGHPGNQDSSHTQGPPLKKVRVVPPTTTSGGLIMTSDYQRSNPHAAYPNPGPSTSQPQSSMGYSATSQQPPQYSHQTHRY

[11] = target: Serine/threonine-protein kinase Chk1 (Homo sapiens, UniProt O14757); assay: CHK1(CHE1CGP1) Takeda global kinase panel
[12] = target: Casein kinase I isoform alpha (Homo sapiens, UniProt P48729); assay: CK1alpha(C1A1PHY1) Takeda global kinase panel
[13] = target: Casein kinase I isoform gamma-1 (Homo sapiens, UniProt Q9HCP0); assay: CK1gamma1(C1G1LGI1) Takeda global kinase panel
[14] = target: Dual specificity tyrosine-phosphorylation-regulated kinase 1A (Homo sapiens, UniProt Q13627); assay: DYRK1A(DY1ALGP1) Takeda global kinase panel
[15] = target: Epidermal growth factor receptor (Homo sapiens, UniProt P00533); assay: EGFR(EGFRMGB1) Takeda global kinase panel
[16] = target: Interferon-induced, double-stranded RNA-activated protein kinase (Homo sapiens, UniProt P19525); assay: PKR(EIK2LGY1) Takeda global kinase panel
Ephrin type-A receptor 6 = Ephrin type-A receptor 6 (Homo sapiens, UniProt Q9UF33); assay: EphA6(EPA6LGI5) Takeda global kinase panel
Ephrin type-B receptor 4 = Ephrin type-B receptor 4 (Homo sapiens, UniProt P54760); assay: EphB4(EPB4LGY1) Takeda global kinase panel
[17] = target: G protein-coupled receptor kinase 5 (Homo sapiens, UniProt P34947); assay: GRK5(GRK5LGP1) Takeda global kinase panel
[18] = target: Interleukin-1 receptor-associated kinase 3 (Homo sapiens, UniProt Q9Y616); assay: IRAK3(IRK3PFE1) Takeda global kinase panel
[19] = target: Mitogen-activated protein kinase kinase kinase 12 (Homo sapiens, UniProt Q12852); assay: DLK(M312CGY1) Takeda global kinase panel
[20] = target: Mitogen-activated protein kinase 13 (Homo sapiens, UniProt O15264); assay: p38delta(MP13LGP1) Takeda global kinase panel
[21] = target: Microtubule-associated serine/threonine-protein kinase 1 (Homo sapiens, UniProt Q9Y2H9); assay: MAST1(MAS1LGE5) Takeda global kinase panel
Sequence of Microtubule-associated serine/threonine-protein kinase 1 (Q9Y2H9 whole entry): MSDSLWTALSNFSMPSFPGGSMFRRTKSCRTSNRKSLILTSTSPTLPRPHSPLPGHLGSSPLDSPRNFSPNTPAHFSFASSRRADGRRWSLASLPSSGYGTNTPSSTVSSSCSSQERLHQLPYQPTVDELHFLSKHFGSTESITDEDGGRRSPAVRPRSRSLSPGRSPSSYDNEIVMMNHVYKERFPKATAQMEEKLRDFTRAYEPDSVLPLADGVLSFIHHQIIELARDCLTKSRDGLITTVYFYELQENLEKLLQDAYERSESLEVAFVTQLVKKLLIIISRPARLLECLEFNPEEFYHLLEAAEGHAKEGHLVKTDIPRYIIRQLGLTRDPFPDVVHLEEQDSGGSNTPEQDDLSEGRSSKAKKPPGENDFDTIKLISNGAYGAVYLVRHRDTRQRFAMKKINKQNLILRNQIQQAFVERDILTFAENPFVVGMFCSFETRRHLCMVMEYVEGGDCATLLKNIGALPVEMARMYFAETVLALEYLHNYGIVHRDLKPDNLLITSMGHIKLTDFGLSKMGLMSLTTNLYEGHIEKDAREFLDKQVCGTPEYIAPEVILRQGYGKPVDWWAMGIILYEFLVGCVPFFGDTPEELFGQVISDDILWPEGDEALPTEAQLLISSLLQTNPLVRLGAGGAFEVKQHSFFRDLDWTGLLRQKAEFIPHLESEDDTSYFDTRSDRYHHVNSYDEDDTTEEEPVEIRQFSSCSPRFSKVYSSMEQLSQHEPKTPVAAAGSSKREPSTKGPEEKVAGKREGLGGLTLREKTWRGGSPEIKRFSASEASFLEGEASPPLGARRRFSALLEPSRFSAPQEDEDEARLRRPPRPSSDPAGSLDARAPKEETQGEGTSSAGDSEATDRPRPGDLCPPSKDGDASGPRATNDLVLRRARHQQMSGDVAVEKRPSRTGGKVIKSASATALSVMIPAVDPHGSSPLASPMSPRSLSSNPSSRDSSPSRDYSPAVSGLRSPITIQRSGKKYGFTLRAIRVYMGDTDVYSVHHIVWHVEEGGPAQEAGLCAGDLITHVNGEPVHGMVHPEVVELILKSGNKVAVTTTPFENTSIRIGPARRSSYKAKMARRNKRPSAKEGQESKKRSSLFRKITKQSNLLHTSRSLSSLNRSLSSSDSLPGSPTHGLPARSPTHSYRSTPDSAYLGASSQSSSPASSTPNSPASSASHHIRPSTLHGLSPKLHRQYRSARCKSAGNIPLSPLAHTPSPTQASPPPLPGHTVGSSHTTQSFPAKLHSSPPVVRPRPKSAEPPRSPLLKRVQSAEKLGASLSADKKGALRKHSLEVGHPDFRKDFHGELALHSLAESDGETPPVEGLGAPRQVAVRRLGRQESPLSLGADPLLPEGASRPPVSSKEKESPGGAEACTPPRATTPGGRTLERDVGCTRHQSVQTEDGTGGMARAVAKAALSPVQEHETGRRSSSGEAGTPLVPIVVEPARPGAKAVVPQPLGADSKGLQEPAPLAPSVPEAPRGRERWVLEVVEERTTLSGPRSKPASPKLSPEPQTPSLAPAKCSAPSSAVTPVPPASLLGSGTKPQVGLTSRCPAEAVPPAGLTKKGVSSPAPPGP

[22] = target: Serine/threonine-protein kinase 26 (Homo sapiens, UniProt Q9P289); assay: MST4(MST4LGC1) Takeda global kinase panel
Myosin-IIIb = Myosin-IIIb (Homo sapiens, UniProt Q8WXR4); assay: MYO3B(MY3BLGA1) Takeda global kinase panel
[23] = target: Serine/threonine-protein kinase Nek1 (Homo sapiens, UniProt Q96PY6); assay: Nek1(NEK1LGY1) Takeda global kinase panel
[24] = target: Serine/threonine-protein kinase Nek5 (Homo sapiens, UniProt Q6P3R8); assay: Nek5(NEK5LGRD) Takeda global kinase panel
[25] = target: NT-3 growth factor receptor (Homo sapiens, UniProt Q16288); assay: TRKC(NTR3LGN1) Takeda global kinase panel
SRSF protein kinase 2 = SRSF protein kinase 2 (Homo sapiens, UniProt P78362); assay: SRPK2(SRP2IGRL) Takeda global kinase panel
TGF-beta receptor type-1 = TGF-beta receptor type-1 (Homo sapiens, UniProt P36897); assay: TGFbetaR1(TGF1LGF1) Takeda global kinase panel
[26] = target: TRAF2 and NCK-interacting protein kinase (Homo sapiens, UniProt Q9UKE5); assay: TNIK [ZC2(TNIKLGF1)] Takeda global kinase panel
[27] = target: Non-receptor tyrosine-protein kinase TNK1 (Homo sapiens, UniProt Q13470); assay: Tnk1(TNK1LGY1) Takeda global kinase panel
Activated CDC42 kinase 1 = Activated CDC42 kinase 1 (Homo sapiens, UniProt Q07912); assay: Ack(TNK2LGF1) Takeda global kinase panel
Sequence of Activated CDC42 kinase 1 (Q07912 whole entry): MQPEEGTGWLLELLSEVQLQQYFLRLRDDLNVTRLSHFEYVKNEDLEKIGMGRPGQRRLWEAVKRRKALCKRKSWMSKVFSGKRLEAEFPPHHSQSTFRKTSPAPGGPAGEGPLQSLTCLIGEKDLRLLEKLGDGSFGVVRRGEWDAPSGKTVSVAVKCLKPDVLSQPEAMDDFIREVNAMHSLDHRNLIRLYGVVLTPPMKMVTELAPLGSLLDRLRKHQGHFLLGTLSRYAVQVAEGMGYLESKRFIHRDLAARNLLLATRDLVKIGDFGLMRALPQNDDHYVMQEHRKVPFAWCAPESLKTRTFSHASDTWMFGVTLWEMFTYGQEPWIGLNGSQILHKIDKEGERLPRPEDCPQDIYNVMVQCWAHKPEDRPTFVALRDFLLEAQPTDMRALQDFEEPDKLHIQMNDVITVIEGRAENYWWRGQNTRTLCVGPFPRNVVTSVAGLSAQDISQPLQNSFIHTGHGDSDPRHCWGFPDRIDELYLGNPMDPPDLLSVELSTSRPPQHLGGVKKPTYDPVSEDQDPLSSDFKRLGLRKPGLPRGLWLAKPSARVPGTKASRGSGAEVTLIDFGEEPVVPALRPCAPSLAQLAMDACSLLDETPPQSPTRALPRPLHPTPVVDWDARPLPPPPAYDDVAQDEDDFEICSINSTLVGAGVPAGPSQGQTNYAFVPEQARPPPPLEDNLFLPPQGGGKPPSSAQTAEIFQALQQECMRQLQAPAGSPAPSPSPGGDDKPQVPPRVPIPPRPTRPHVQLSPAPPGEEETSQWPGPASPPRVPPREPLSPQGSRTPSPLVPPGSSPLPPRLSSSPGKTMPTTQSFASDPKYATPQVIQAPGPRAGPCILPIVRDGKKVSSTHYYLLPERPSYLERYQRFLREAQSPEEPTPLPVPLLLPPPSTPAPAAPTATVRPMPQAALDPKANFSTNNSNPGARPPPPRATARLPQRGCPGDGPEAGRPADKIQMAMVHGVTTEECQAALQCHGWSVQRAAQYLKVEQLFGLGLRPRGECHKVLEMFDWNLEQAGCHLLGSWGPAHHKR

[28] = target: Serine/threonine-protein kinase ULK2 (Homo sapiens, UniProt Q8IYT8); assay: ULK2(ULK2LGY1) Takeda global kinase panel
[29] = target: Myosin light chain kinase family member 4 (Homo sapiens, UniProt Q86YV6); assay: SgK085(SG85LGY1) Takeda global kinase panel
Sequence of Myosin light chain kinase family member 4 (Q86YV6 whole entry): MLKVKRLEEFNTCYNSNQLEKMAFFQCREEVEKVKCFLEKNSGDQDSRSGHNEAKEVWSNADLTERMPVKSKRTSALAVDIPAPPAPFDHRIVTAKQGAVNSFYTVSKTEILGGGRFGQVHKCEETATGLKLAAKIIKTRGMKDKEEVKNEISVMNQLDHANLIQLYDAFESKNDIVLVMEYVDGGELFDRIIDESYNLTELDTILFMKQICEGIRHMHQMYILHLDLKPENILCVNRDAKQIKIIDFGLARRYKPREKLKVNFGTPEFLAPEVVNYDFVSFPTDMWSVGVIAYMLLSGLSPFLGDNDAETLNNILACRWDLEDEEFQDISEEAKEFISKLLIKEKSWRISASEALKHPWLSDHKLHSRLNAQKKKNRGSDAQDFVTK

[30] = target: Uncharacterized serine/threonine-protein kinase SBK3 (Homo sapiens, UniProt P0C264); assay: SgK110(SG10LGF1) Takeda global kinase panel
[31] = target: Cyclin-dependent kinase 11A (Homo sapiens, UniProt Q9UQ88); assay: CDK11A(C11ALGS1) Takeda global kinase panel
[32] = target: D(2) dopamine receptor (Homo sapiens) (UniProt P14416); conditions: Compound concentration 10.0 uM
Sequence of D(2) dopamine receptor (Homo sapiens) (P14416 whole entry): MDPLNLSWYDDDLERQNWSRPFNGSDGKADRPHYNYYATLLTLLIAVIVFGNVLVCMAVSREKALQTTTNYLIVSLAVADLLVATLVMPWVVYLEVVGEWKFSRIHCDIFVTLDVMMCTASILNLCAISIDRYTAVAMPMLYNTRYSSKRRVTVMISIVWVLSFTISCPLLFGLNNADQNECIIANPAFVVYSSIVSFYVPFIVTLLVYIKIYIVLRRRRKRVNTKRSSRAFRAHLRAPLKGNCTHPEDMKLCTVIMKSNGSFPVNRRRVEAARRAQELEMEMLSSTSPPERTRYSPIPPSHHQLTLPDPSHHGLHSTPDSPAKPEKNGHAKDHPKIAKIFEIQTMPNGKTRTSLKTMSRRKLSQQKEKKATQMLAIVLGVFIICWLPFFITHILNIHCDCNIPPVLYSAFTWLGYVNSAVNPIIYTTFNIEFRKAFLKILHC

[33] = target: Histamine H1 receptor (Homo sapiens) (UniProt P35367); conditions: Compound concentration 10.0 uM
[34] = target: T1, Muscarinic acetylcholine receptor M1 (Homo sapiens) (UniProt P11229); conditions: Compound concentration 10.0 uM
T1 sequence (whole entry): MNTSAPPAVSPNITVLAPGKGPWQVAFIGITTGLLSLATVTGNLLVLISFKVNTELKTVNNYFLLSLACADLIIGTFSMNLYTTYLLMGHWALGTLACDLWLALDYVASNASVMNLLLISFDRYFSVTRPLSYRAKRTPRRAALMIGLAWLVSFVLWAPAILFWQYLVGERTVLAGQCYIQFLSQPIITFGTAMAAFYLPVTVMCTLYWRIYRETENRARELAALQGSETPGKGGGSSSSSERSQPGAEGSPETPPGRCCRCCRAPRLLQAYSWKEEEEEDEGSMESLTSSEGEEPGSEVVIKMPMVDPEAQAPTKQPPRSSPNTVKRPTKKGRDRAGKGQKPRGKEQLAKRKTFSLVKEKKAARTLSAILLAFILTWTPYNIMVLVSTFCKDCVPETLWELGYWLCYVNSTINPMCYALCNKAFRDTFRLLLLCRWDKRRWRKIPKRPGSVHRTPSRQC

Compound	IC50 [1]	IC50 [2]	IC50 [3]	IC50 [4]	IC50 [5]	IC50 [6]	IC50 [7]	IC50 [8]	IC50 [9]	IC50 [10]	IC50 [11]	IC50 [12]	IC50 [13]	IC50 [14]	IC50 [15]	IC50 [16]	IC50 (Ephrin type-A receptor 6)	IC50 (Ephrin type-B receptor 4)	IC50 [17]	IC50 [18]	also measured
CN1C(=O)[C@@H](N2CCc3cn(Cc4ccccc4)nc3C2=O)COc2ccccc21 [TP-030-1]	1000 nM	1000 nM	1000 nM	1000 nM	1000 nM	1000 nM	1000 nM	1000 nM	1000 nM	1000 nM	1000 nM	1000 nM	1000 nM	1000 nM	1000 nM	1000 nM	1000 nM	1000 nM	1000 nM	1000 nM	IC50 [19]: 1000 nM; IC50 [20]: 1000 nM; IC50 [21]: 1000 nM; IC50 [22]: 1000 nM; IC50 (Myosin-IIIb): 1000 nM; IC50 [23]: 1000 nM; IC50 [24]: 1000 nM; IC50 [25]: 1000 nM; IC50 (SRSF protein kinase 2): 1000 nM; IC50 (TGF-beta receptor type-1): 1000 nM; IC50 [26]: 1000 nM; IC50 [27]: 1000 nM; IC50 (Activated CDC42 kinase 1): 1000 nM; IC50 [28]: 1000 nM; IC50 [29]: 1000 nM; IC50 [30]: 1000 nM; IC50 [31]: 1000 nM; inhibition [32]: 7%; inhibition [33]: 3%; inhibition [34]: 0%
CN1C(=O)[C@@H](N2CCc3cn(CC4CCS(=O)(=O)CC4)nc3C2=O)COc2ccccc21 [TP-030n]	1000 nM	1000 nM	1000 nM	1000 nM	1000 nM	1000 nM	1000 nM	1000 nM	1000 nM	1000 nM	1000 nM	1000 nM	1000 nM	1000 nM	1000 nM	1000 nM	1000 nM	1000 nM	1000 nM	1000 nM	IC50 [19]: 1000 nM; IC50 [20]: 1000 nM; IC50 [21]: 1000 nM; IC50 [22]: 1000 nM; IC50 (Myosin-IIIb): 1000 nM; IC50 [23]: 1000 nM; IC50 [24]: 1000 nM; IC50 [25]: 1000 nM; IC50 (SRSF protein kinase 2): 1000 nM; IC50 (TGF-beta receptor type-1): 1000 nM; IC50 [26]: 1000 nM; IC50 [27]: 1000 nM; IC50 (Activated CDC42 kinase 1): 1000 nM; IC50 [28]: 1000 nM; IC50 [29]: 1000 nM; IC50 [30]: 1000 nM; IC50 [31]: 1000 nM; inhibition [32]: 2%; inhibition [33]: 8%; inhibition [34]: 2%

Reference: ChEMBL document CHEMBL4507327 (2021)
